In patent publication US20090111824A1, “AMIDE LINKED HETEROAROMATIC DERIVATIVES AS MODULATORS OF MGLUR5” (AstraZeneca AB, priority 2007, published 2009):

Legend:
[1] = Determination of brain to plasma ratio in rat; format: in vivo; settings: brain and plasma, female Sprague Dawley rats, read-out: Brain/Plasma Ratio of compound in Rat
Protocol: Brain to plasma ratios are estimated in female Sprague Dawley rats. The compound is dissolved in water or another appropriate vehicle. For determination of brain to plasma ratio the compound is administrated as a subcutaneous, or an intravenous bolus injection, or an intravenous infusion, or an oral administration. At a predetermined time point after the administration a blood sample is taken with cardiac puncture. The rat is terminated by cutting the heart open, and the brain is immediately retained. The blood samples are collected in heparinized tubes and centrifuged within 30 minutes, in order to separate the plasma from the blood cells. The plasma is transferred to 96-well plates and stored at −20° C. until analysis. The brains are divided in half, and each half is placed in a pre-tarred tube and stored at −20° C. until analysis. Prior to the analysis, the brain samples are thawed and 3 mL/g brain tissue of distilled water is added to the tubes. The brain samples are sonicated in an ice bath until the samples are homogenized. Both brain and plasma samples are precipitated with acetonitrile. After centrifugation, the supernatant is diluted with 0.2% formic acid. Analysis is performed on a short reversed-phase HPLC column with rapid gradient elution and MSMS detection using a triple quadrupole instrument with electrospray ionisation and Selected Reaction Monitoring (SRM) acquisition. Liquid-liquid extraction may be used as an alternative sample clean-up. The samples are extracted, by shaking, to an organic solvent after addition of a suitable buffer. An aliquot of the organic layer is transferred to a new vial and evaporated to dryness under a stream of nitrogen. After reconstitution of the residuals the samples are ready for injection onto the HPLC column.

[2] = target: T1, human mGluR5d (Homo sapiens, UniProt P41594); assay: FLIPR assay, functional assessment of mGluR5 antagonism (intracellular calcium mobilization); format: cell-based; settings: cells expressing human mGluR5d; read-out: FLIPR hmGluR5d
T1 construct: expressed in transfected cells; The cells are kept under Hygromycin B and Zeocin selection; The separate IP3 assay names GHEK cells
Excerpt: Functional Assessment of mGluR5 Antagonism in Cell Lines Expressing mGluR5D
The properties of the compounds of the invention can be analyzed using standard assays for pharmacological activity. Examples of glutamate receptor assays are well known in the art as described in for example Aramori et al., Neuron 8:757 (1992), Tanabe et al., Neuron 8:169 (1992), Miller et al., J. Neuroscience 15: 6103 (1995), Balazs, et al., J. Neurochemistry 69:151 (1997). The methodology described in these publications is incorporated herein by reference. Conveniently, the compounds of the invention can be studied by means of an assay (FLIPR) that measures the mobilization of intracellular calcium, [Ca^2+]i in cells expressing mGluR5 or another assay (IP3) that measures inositol phosphate turnover.
Cells expressing human mGluR5d as described in WO97/05252 cultured in a mixture of high glucose DMEM with Glutamax (31966-021)(500 mL), 10% dialyzed fetal bovine serum (Hyclone #SH30079.03)(56 mL), 200 μg/mL Hygromycin B (Invitrogen 45-0430, 50 mg/mL)(2.2 mL), 200 μg/mL Zeocin (Invitrogen #R250-01; 100 mg/l mL)(1.1 mL) are seeded at a density of 100,000 cells per well on collagen coated clear bottom 96-well plates with black sides and cells were allowed to adhere over night before experiments. All assays are done in a buffer containing 146 mM NaCl, 5 mM KCl, 1 mM MgCl2, 1 mM CaCl2, 20 mM HEPES, 1 mg/mL glucose and 1 mg/mL BSA Fraction IV (pH 7.4). Cell cultures in the 96-well plates are loaded for 60 minutes in the above mentioned buffer containing 6 μM of the acetoxymethyl ester form of the fluorescent calcium indicator fluo-3 (Molecular Probes, Eugene, Oreg.) in 0.025% pluronic acid (a proprietary, non-ionic surfactant polyol—CAS Number 9003-11-6). […] The fluorescence signal is sampled 50 times at 1-second intervals followed by 3 samples at 5-second intervals immediately after each of the two additions. Responses are measured as the difference between the peak heights of the response to agonist, less the background fluorescence within the sample period. […]

T1 sequence (P41594 21-942 isoform P41594-3 limits assumed): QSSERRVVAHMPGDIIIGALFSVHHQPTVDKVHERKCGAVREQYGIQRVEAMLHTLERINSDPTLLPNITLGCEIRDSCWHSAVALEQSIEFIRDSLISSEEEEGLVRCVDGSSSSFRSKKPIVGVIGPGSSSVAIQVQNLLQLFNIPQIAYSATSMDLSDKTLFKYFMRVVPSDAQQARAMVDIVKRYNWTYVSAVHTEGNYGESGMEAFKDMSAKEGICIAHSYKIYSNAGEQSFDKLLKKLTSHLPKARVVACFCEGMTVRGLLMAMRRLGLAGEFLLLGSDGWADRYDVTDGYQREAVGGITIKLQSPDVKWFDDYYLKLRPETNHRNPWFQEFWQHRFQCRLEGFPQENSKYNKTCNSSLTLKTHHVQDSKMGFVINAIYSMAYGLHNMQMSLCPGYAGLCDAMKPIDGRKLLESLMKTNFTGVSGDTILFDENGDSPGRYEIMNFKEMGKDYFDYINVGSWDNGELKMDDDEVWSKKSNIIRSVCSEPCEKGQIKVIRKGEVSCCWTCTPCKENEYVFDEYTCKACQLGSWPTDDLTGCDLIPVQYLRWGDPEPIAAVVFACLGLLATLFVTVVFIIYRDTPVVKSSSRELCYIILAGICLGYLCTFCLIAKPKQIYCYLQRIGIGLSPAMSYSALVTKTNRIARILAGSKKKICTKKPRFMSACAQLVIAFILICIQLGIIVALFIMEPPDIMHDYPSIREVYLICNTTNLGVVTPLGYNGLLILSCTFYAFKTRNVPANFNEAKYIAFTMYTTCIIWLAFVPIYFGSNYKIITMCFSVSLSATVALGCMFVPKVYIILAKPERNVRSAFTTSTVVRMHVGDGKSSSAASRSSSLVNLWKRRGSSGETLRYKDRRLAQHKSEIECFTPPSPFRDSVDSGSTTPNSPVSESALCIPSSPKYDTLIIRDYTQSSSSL

`CN(C(=O)c1cc(-c2cccc(Cl)c2)on1)c1nnc(-c2ccncc2)n1C` [Example 1, 5-(3-Chlorophenyl)-N-methyl-N-(4-methyl-5-pyridin-4-yl-4H-1,2,4-triazol-3-yl)isoxazole-3-carboxamide] gave a Kp [1] of 0.26 and an IC50 [2] of 37 nM.
Work on `Cc1cccc(-n2nnc(C(=O)N(C)c3nnc(-c4cn[nH]c(=O)c4)n3C)n2)c1` [Example 4, N-Methyl-N-[4-methyl-5-(6-oxo-1,6-dihydropyridazin-4-yl)-4H-1,2,4-triazol-3-yl]-2-(3-methylphenyl)-2H-tetrazole-5-carboxamide] yielded a Kp [1] of under 0.01 and an IC50 [2] of 567 nM.
In the case of `CN(C(=O)c1cc(-c2cccc(Cl)c2)on1)c1nnc(-c2cn[nH]c(=O)c2)n1C` [Example 3, 5-(3-Chlorophenyl)-N-methyl-N-[4-methyl-5-(6-oxo-1,6-dihydropyridazin-4-yl)-4H-1,2,4-triazol-3-yl]isoxazole-3-carboxamide], the Kp [1] is reported as 0.19 and the IC50 [2] is reported as 62 nM.
